The target in the experiment is T1, 3 × FLAG-tagged HOIP RBR in HEK293T cells (Homo sapiens, UniProt Q96EP0).
T1 construct: expressed in transfected cells; host or cells: HEK293T, transient, modified pcDNA3.1(+)
As to the kind of experiment: ABPP in-gel fluorescence, competition with TCO probe (15). Format: cell-based. Particulars: 30 μM 7 h pretreatment, then 3 μM (15) 2 h; vs (11i), (17), DMSO. The source says: PCR purification kit QIAquick Qiagen 28104
Maxiprep Kit Endofree plasmid Maxi Kit Qiagen 12362
E coli Competent DH5α New England C2987H
E coli Competent BL21 GOLD(DE3) Agilent 230132
LDS loading buffer NuPAGE 4× LDS loading buffer Invitrogen NP0008
Trypsin Cell Culture TE Trypsin Gibco R-001-100
Trypsin Sequencing Grade Modified Trypsin Promega V511A
Chymotrypsin Sequencing Grade Chymotrypsin Promega V106A
Cy5-Tetrazine Fluorescent probe for IEDDA click chemistry DC Biosciences CCR-1189-1 Tz-PEG4-Biotin Tetrazine linked biotin Jena Bioscience CLK-027-25
NeutrAvidin beads High capacity NeutrAvidin agarose resin Thermo 29204 […]
5.1 Activity-based protein profiling – In-gel fluorescence […]
HEK293T cells were cultured and transfected with 3×FLAG-tagged HOIP RBR wild type or C885A mutant, or mock as described in section 4.8 above. […] The cells were harvested and lysed (50 mM Tris-HCl, pH 7.5, 1.5 mM MgCl2, 150 mM NaCl, 5% glycerol, 0.8% v/v IGEPAL-CA630, 25 mM NaF, 1 mM Na3VO4, complete protease inhibitor), and the protein concentration was determined by the BCA assay as described in section […]
50 µL. The lysates were incubated at 23 °C, 600 rpm (Eppendorph Thermomixer) for 1 h, then analyzed by SDS PAGE (section 4.5) and in-gel fluorescence (LI-COR) at 700 nm, and by Western Blot as described in section 4.6 (Figure 6E and Supplementary Figures S15, S16). […]

T1 sequence (Q96EP0 697-1072): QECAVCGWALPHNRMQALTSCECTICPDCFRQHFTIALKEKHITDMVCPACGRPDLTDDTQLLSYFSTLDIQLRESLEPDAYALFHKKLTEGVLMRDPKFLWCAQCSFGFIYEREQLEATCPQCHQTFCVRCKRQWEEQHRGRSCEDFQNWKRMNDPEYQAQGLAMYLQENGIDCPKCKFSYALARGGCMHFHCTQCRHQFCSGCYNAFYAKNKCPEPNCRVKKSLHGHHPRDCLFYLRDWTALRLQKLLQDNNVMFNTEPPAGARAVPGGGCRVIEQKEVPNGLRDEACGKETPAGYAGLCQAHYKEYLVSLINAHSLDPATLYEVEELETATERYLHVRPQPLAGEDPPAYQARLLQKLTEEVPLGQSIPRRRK

As to `COC(=O)/C=C/CNC(=O)c1cc2c([nH]c1=O)CCCC2` [Compound 11a], the “in-gel fluorescence of HOIP RBR labeled by probe (15)” value was “significant reduction of the in-gel fluorescence of HOIP RBR”.

Values taken from article PMC6383986, “Fragment-Based Covalent Ligand Screening Enables Rapid Discovery of Inhibitors for the RBR E3 Ubiquitin Ligase HOIP” (Journal of the American Chemical Society, 2019).
